≈ marks a conversion by molar mass, not a printed value. Read-outs that look alike come from different tables or passages of the source.
Key:
[1] = system: Trichophyton interdigitale ATCC 9533, CCM 8377; experiment: Antifungal microdilution broth method (EUCAST); assay type: cell-based
[2] = system: Candida krusei ATCC 6258, CCM 8271; experiment: Antifungal microdilution broth method (EUCAST); assay type: cell-based; conditions: Pichia kudriavzevii
[3] = system: Mycobacterium tuberculosis H37Ra ITM-M006710 (ATCC 9431); experiment: Microdilution broth, modified Microplate Alamar Blue Assay, whole cell growth inhibition; assay type: cell-based; conditions: for MIC: Mycobacterium tuberculosis, read-out: MIC Mtb H37Ra
[4] = system: Staphylococcus aureus spp.aureus ATCC 29213, CCM 4223; experiment: Antibacterial microdilution broth method (EUCAST); assay type: cell-based; conditions: read-out: MIC SA
[5] = system: Escherichia coli ATCC 25922, CCM 3954; experiment: Antibacterial microdilution broth method (EUCAST); assay type: cell-based; conditions: read-out: MIC EC
[6] = system: Candida tropicalis ATCC 750, CCM 8264; experiment: Antifungal microdilution broth method (EUCAST); assay type: cell-based
[7] = system: Klebsiella pneumoniae ATCC 10031, CCM 4415; experiment: Antibacterial microdilution broth method (EUCAST)
[8] = system: HepG2 cells; experiment: HepG2 cytotoxicity, CellTiter 96 (MTS) assay; assay type: cell-based, human; conditions: for IC50: read-out: HepG2 IC50; for SI, selectivity index: IC50 (HepG2)/MIC against Mtb H37Ra (in µM)
[9] = system: Enterococcus faecalis ATCC 29212, CCM 4224; experiment: Antibacterial microdilution broth method (EUCAST); assay type: cell-based; conditions: read-out: MIC EF
[10] = system: Aspergillus fumigatus ATCC 204305; experiment: Antifungal microdilution broth method (EUCAST); assay type: cell-based
[11] = system: Acinetobacter baumanii ATCC 19606, DSM 30007; experiment: Antibacterial microdilution broth method (EUCAST); assay type: cell-based; conditions: Acinetobacter baumannii
[12] = system: Mycobacterium smegmatis DSM 43465 (ATCC 607); experiment: Microdilution broth, modified Microplate Alamar Blue Assay, whole cell growth inhibition; assay type: cell-based; conditions: for MIC: Mycolicibacterium smegmatis, read-out: MIC Mycobacterium smegmatis
[13] = system: Candida parapsilosis ATCC 22019, CCM 8260; experiment: Antifungal microdilution broth method (EUCAST); assay type: cell-based; conditions: Lodderomyces parapsilosis
[14] = system: Candida albicans ATCC 24433, CCM 8320; experiment: Antifungal microdilution broth method (EUCAST); assay type: cell-based
[15] = system: Absidia corymbifera CCM 8077 (Lichtheimia corymbifera); experiment: Antifungal microdilution broth method (EUCAST); assay type: cell-based
[16] = system: Staphylococcus epidermidis ATCC 12228, CCM 4418; experiment: Antibacterial microdilution broth method (EUCAST); assay type: cell-based; conditions: read-out: MIC SE
[17] = system: Mycobacterium aurum DSM 43999 (ATCC 23366); experiment: Microdilution broth, modified Microplate Alamar Blue Assay, whole cell growth inhibition; assay type: cell-based; conditions: for MIC: Mycolicibacterium aurum, read-out: MIC Mycobacterium aurum
[18] = system: Staphylococcus aureus methicillin resistant ATCC 43300, CCM 4750; experiment: microbe, parasite or virus in culture; assay type: cell-based; conditions: ATCC 43300 / CCM 4750 / MRSA, read-out: MIC MRSA
[19] = system: Pseudomonas aeruginosa ATCC 27853, CCM 3955; experiment: Antibacterial microdilution broth method (EUCAST); assay type: cell-based; conditions: read-out: MIC PA
[20] = system: Aspergillus flavus CCM 8363; experiment: Antifungal microdilution broth method (EUCAST); assay type: cell-based
[21] = in vitro, Middlebrook 7H9 broth, resazurin
[22] = Homo sapiens, HepG2, 24 h incubation, > means higher concentration not reproducible due to precipitation
[23] = 72 h, standards, read-out: MIC against Trichophyton interdigitale
[24] = 48 h, standards, read-out: MIC against C. krusei
[25] = 48 h, standards, read-out: MIC against C. tropicalis
[26] = ATCC204305, 48 h, standards, read-out: MIC against Aspergillus fumigatus
[27] = 48 h, standards, read-out: MIC against C. parapsilosis
[28] = 48 h, standards, read-out: MIC against Candida albicans
[29] = CCM8077, 48 h, standards, read-out: MIC against Lichtheimia corymbifera
[30] = CCM8363, 48 h, standards, read-out: MIC against Aspergillus flavus

Molecule: CCCNc1cnc(C(=O)Nc2ccc(O)cc2)cn1 [Compound 3a, N-(4-hydroxyphenyl)-5-(propylamino)pyrazine-2-carboxamide]
- MIC ([1]; 72 h, read-out: MIC TI): > 500 µM
- MIC ([1]; 120 h, read-out: MIC TI): > 500 µM
- MIC ([2]; 24 h, read-out: MIC CK): > 500 µM
- MIC ([2]; 48 h, read-out: MIC CK): > 500 µM
- MIC [3, 21]: 15.6 µg/mL (≈ 57.4 µM)
- MIC ([4]; 24 h): > 500 µM
- MIC ([4]; 48 h): > 500 µM
- MIC ([5]; 24 h): > 500 µM
- MIC ([5]; 48 h): > 500 µM
- melting point: 209.3 to 215.6 °C
- MIC ([6]; 24 h, read-out: MIC CT): > 500 µM
- MIC ([6]; 48 h, read-out: MIC CT): > 500 µM
- MIC KP ([7]; 24h): > 500 µM
- MIC KP ([7]; 48h): > 500 µM
- IC50 ([8]; Homo sapiens, HepG2, 24 h): 410 µM
- SI, selectivity index [8]: 7.18
- MIC ([9]; 24 h): > 500 µM
- MIC ([9]; 48 h): > 500 µM
- MIC ([10]; ATCC204305, 24 h, read-out: MIC AF): > 500 µM
- MIC ([10]; ATCC204305, 48 h, read-out: MIC AF): > 500 µM
- MIC ([11]; 24h): > 500 µM
- MIC ([11]; 48h): > 500 µM
- MIC [12]: ≥ 500 µg/mL
- MIC ([13]; 24 h, read-out: MIC CP): > 500 µM
- MIC ([13]; 48 h, read-out: MIC CP): > 500 µM
- MIC ([14]; 24 h, read-out: MIC CA): > 500 µM
- MIC ([14]; 48 h, read-out: MIC CA): > 500 µM
- MIC ([15]; CCM8077, 24 h, read-out: MIC AC): > 500 µM
- MIC ([15]; CCM8077, 48 h, read-out: MIC AC): > 500 µM
- MIC ([16]; 24 h): > 500 µM
- MIC ([16]; 48 h): > 500 µM
- MIC [17]: ≥ 500 µg/mL
- MIC ([18]; 24 h): > 500 µM
- MIC ([18]; 48 h): > 500 µM
- MIC ([19]; 72 h): > 500 µM
- MIC ([19]; 120 h): > 500 µM
- MIC ([20]; CCM8363, 24 h, read-out: MIC AFla): > 500 µM
- MIC ([20]; CCM8363, 48 h, read-out: MIC AFla): > 500 µM

Molecule: O=C(Nc1ccc(O)cc1)c1cnc(Cl)cn1 [Compound 3, 5-Chloro-N-(4-hydroxyphenyl)pyrazine-2-carboxamide]
- MIC [3, 21]: 62.5 µg/mL (≈ 250 µM)
- IC50 [8, 22]: 350 µM
- SI, selectivity index [8]: 1.40
- MIC [12, 21]: ≥ 250 µg/mL
- MIC [17, 21]: ≥ 250 µg/mL

Molecule: 5-Chloro-N-(5-chloro-2-hydroxyphenyl)pyrazine-2-carboxamide [Compound 6]
- MIC Mtb H37Ra [3, 21]: ≥500 µg/mL
- IC50 ([8]; 24 h incubation, > means higher concentration not reproducible due to precipitation): > 250 µM
- MIC Mycobacterium smegmatis [12, 21]: ≥500 µg/mL
- MIC Mycobacterium aurum [17, 21]: ≥500 µg/mL

Molecule: C[C@@H](c1ncncc1F)[C@](O)(Cn1cncn1)c1ccc(F)cc1F [voriconazole, reference compound]
- MIC [1, 23]: > 16 µg/mL
- MIC [2, 24]: 0.5 µg/mL
- MIC [6, 25]: > 16 µg/mL
- MIC [10, 26]: 1 µg/mL
- MIC [13, 27]: 8 µg/mL
- MIC [14, 28]: > 16 µg/mL
- MIC [15, 29]: > 16 µg/mL
- MIC [20, 30]: > 16 µg/mL

Molecule: CCc1ccc(NC(=O)c2cnc(Cl)cn2)cc1 [Compound 5, 5-Chloro-N-(4-ethylphenyl)pyrazine-2-carboxamide]
- MIC [3]: 250 µg/mL (≈ 955 µM)
- IC50 [8, 22]: > 50 µM
- MIC [12, 21]: ≥ 500 µg/mL
- MIC [17, 21]: ≥ 500 µg/mL

Molecule: O=C(Nc1cccc(O)c1)c1cnc(Cl)cn1 [Compound 2, 5-Chloro-N-(3-hydroxyphenyl)pyrazine-2-carboxamide]
- MIC [3, 21]: 31.2 µg/mL (≈ 125 µM)
- IC50 [8, 22]: > 500 µM
- SI, selectivity index [8]: >3.99
- MIC [12, 21]: ≥ 500 µg/mL
- MIC [17, 21]: ≥ 500 µg/mL

Molecule: CCCNc1cnc(C(=O)Nc2ccc(Cl)cc2O)cn1 [Compound 6a, N-(4-chloro-2-hydroxyphenyl)-5-(propylamino)pyrazine-2-carboxamide]
- MIC [3, 21]: ≥ 500 µg/mL
- melting point: 248.9 to 250 °C
- MIC [12, 21]: 3.91 µg/mL (≈ 12.7 µM)
- MIC [17, 21]: ≥ 500 µg/mL

Molecule: CO[C@H]1/C=C/O[C@@]2(C)Oc3c(C)c(O)c4c(O)c(c(/C=N/N5CCN(C)CC5)c(O)c4c3C2=O)NC(=O)/C(C)=C\C=C\[C@H](C)[C@H](O)[C@@H](C)[C@@H](O)[C@@H](C)[C@H](OC(C)=O)[C@@H]1C [RIF, rifampicin, reference compound]
- MIC [3, 21]: 0.0039 to 0.0078 µg/mL (≈ 0.00474 to 0.00948 µM)
- MIC [12, 21]: 6.25 to 12.5 µg/mL (≈ 7.59 to 15.2 µM)
- MIC [17, 21]: 0.39 to 0.78 µg/mL (≈ 0.474 to 0.948 µM)

Molecule: CCCCNc1cnc(C(=O)Nc2ccc(Cl)cc2O)cn1 [Compound 6b, 5-(Butylamino)pyrazine-N-(4-chloro-2-hydroxyphenyl)-2-carboxamide]
- MIC [3, 21]: ≥ 500 µg/mL
- melting point: 221.8 to 225.4 °C
- IC50 [8, 22]: > 50 µM
- MIC [12, 21]: 3.91 µg/mL (≈ 12.2 µM)
- MIC [17, 21]: ≥ 500 µg/mL

Molecule: O=C(Nc1cccc(C(F)(F)F)c1)c1cnc(Cl)cn1 [Compound 1, 5-Chloro-N-(3-(trifluoromethyl)phenyl)pyrazine-2-carboxamide]
- MIC [3, 21]: 7.81 µg/mL (≈ 25.9 µM)
- IC50 [8, 22]: 124 µM
- SI, selectivity index [8]: 4.78
- MIC [12, 21]: ≥ 500 µg/mL
- MIC [17, 21]: ≥ 500 µg/mL

Molecule: C[C@@H]1[C@H](O)[C@@H](C)/C=C/C=C/C=C/C=C/C=C/C=C/C=C/[C@H](O[C@@H]2O[C@H](C)[C@@H](O)[C@H](N)[C@@H]2O)C[C@@H]2O[C@](O)(C[C@@H](O)C[C@@H](O)[C@H](O)CC[C@@H](O)C[C@@H](O)CC(=O)O[C@H]1C)C[C@H](O)[C@H]2C(=O)O [Amphotericin B, amphotericin B, reference compound]
- MIC [1, 23]: 2 µg/mL
- MIC [2, 24]: 1 µg/mL
- MIC ([2]; Table 3, standard, read-out: MIC CK (Candida krusei)): 1 µg/mL
- MIC ([2]; Table 3, read-out: MIC CK (Candida krusei)): 1.08 µM
- MIC [6, 25]: 1 µg/mL
- MIC [10, 26]: 1 µg/mL
- MIC [13, 27]: 0.5 µg/mL
- MIC ([13]; Table 3, standard, read-out: MIC CP (Candida parapsilosis)): 0.5 µg/mL
- MIC ([13]; Table 3, read-out: MIC CP (Candida parapsilosis)): 0.54 µM
- MIC [14, 28]: 0.5 µg/mL
- MIC ([14]; Table 3, read-out: MIC CA (Candida albicans)): 0.54 µM
- MIC ([14]; Table 3, standard, read-out: MIC CA (Candida albicans)): 0.5 µg/mL
- MIC [15, 29]: 0.5 µg/mL
- MIC [20, 30]: 8 µg/mL

Molecule: Cc1ccc(NC(=O)c2cnc(Cl)cn2)cc1 [Compound 4, 5-Chloro-N-(p-tolyl)pyrazine-2-carboxamide]
- MIC [3, 21]: ≥ 500 µg/mL
- IC50 [8, 22]: > 50 µM
- MIC [12, 21]: ≥ 500 µg/mL
- MIC [17, 21]: ≥ 500 µg/mL

— publication PMC7180572, “5-Alkylamino-N-phenylpyrazine-2-carboxamides: Design, Preparation, and Antimycobacterial Evaluation” (Molecules, 2020)
